Measured values reported in patent US20240209022A1, “NOVEL PEPTIDE HAVING ANTI-INFLAMMATORY AND TISSUE REGENERATIVE ACTIONS” (KOREA RESEARCH INSTITUTE OF BIOSCIENCE AND BIOTECHNOLOGY, priority 2020, published 2024).

Tests used:
Assay type in all cases: in vivo, C57BL/6J mice
[1] = test system: non-alcoholic hepatitis model; assay: High-fat diet-induced non-alcoholic steatohepatitis model, liver gene expression; details: RT-qPCR; vs PBS buffer group
Protocol: A non-alcoholic hepatitis model was induced by feeding a high-fat diet to 8-week-old SPF male C57BL/6J mice. The experiment for groups administered with Amuc_1409 and PEP001 to PEP005 was performed as follows. Mice fed a high-fat diet for 45 weeks were fed a high-fat diet for an additional 3 weeks, and Amuc_1409 was dissolved in PBS buffer at a concentration of 2.4 μM and then orally administered to the mice by 150 μL per animal at the same time once a day until the end of the experiment, or mice fed a high-fat diet for 8 weeks were fed a high-fat diet for an additional 3 weeks, and PEP001, PEP002, PEP003, PEP004, or PEP005 was dissolved in PBS buffer at a concentration of 2.4 μM and then orally administered to the mice by 150 μL per animal at the same time once a day until the end of the experiment. To the control group, PBS buffer was orally administered in the same manner. The experiment for groups administered with PEP006 to PEP013 was performed as follows. The non-alcoholic hepatitis model was induced by ad libitum feeding of a high-fat diet for 32, 50, or 53 weeks. Mice fed a high-fat diet for 50 weeks were fed a high-fat diet for an additional 3 weeks, and a novel tetrapeptide PEP006, PEP007, PEP008, PEP009, or PEP010 was dissolved in PBS buffer at a concentration of 0.2 μg/150 μL and then orally administered to the mice by 150 μL per animal at the same time until the end of the test, and mice fed a high-fat diet for 53 weeks were fed a high-fat diet for an additional 3 weeks, and a novel […] PEP011, PEP012, or PEP013 was dissolved in PBS buffer at a concentration of 0.2 μg/150 μL and then orally administered to the mice by 150 μL per animal at the same time until the end of the test. To the control group, PBS buffer was orally administered in the same manner. At the end of the experiment, a part of the liver harvested was homogenized with Trizol to extract RNA. Reverse transcriptase was added to the obtained RNA and reacted to synthesize cDNA, and SYBR Green and primers were added to perform quantitative real-time PCR (RT-qPCR), and then the expression levels of genes such as Tnfα, Il-1β, Il-10, and Il-1rn were quantified.

[2] = test system: depression and anxiety model; assay: LPS-induced depression and anxiety model (TST, FST, EPM); details: vs PBS buffer group; for immobility time in forced swim test / immobility time in tail suspension test: oral, LPS-induced; for Ifnγ mRNA expression in brain tissue (hippocampus) / Il-10 mRNA expression in brain tissue (hippocampus): RT-qPCR
Protocol: By Daehan Biolink, 7-week-old male C57BL/6J mice weighing 20-22 g were supplied, and the animals were sufficiently supplied with solid feed and water until the day of the experiment, acclimatized for 1 week while maintaining an environment with a temperature of 22° C. 2° C., a humidity of 55%±15%, and a 12-hour light/dark cycle, and then used in the experiment. From 3 days before inducing depression and anxiety, the peptide was dissolved in PBS buffer and orally administered to the mice by 150 μL per animal at the same time once a day. Amuc_1409 or PEP001, PEP002, PEP003, PEP004, or PEP005 was dissolved in PBS buffer at a concentration of 6.7 μM and then used, and novel tetrapeptides PEP006, PEP007, PEP008, PEP009, and PEP010 and novel tripeptides PEP011, PEP012, and PEP013 were each dissolved in PBS buffer at a concentration of 0.2 μg/150 μL and then used. On the 3rd day of peptide administration, lipopolysaccharide (LPS) dissolved in PBS buffer was intraperitoneally injected at a concentration of 0.8 mg/kg to induce depression and anxiety. Tail suspension test (TST) and forced swim test (FST) were conducted to analyze the effect on depression. As the TST, a tail suspension device was installed in an open white acrylic box of 20 cm×25 cm×30 cm size, and the mouse was suspended upside down at a height where the mouse's tail would not touch the floor, and then the time for which the mouse maintained immobility while observing in the same environment was measured for 6 minutes. […] Water at around 25° C. was filled in a transparent acrylic cylinder (45 cm depth×18 cm diameter) up to 30 cm from the bottom, the mouse was exposed to water, and the time for which the mouse maintained immobility while swimming was measured for 6 minutes. […] An elevated plus-maze (EPM) test was performed to analyze the effect on anxiety level. The EPM device consists of two open arms (50 cm×10 cm) and two […] (50 cm×10 cm) at a height of 50 cm from the floor, and the arms are connected by a central area of 10 cm×10 cm. At the start of the experiment, the mouse was placed in the center of the maze and the time for which the mouse stayed in the open arm was measured for a total of 5 minutes using a video camera, and the percentage of time spent in the open arm was calculated and recorded [(time spent in open arm/time spent in open and closed arms)×100]. In addition, in order to examine the anti-inflammatory activity according to the administration of Amuc_1409 and PEP001, PEP002, PEP003, PEP004, and PEP005 in an animal model of depression and anxiety, the expression of Ifnγ and Il-10 mRNA, which are major inflammatory genes related to depression, in brain tissue (hippocampus) was examined.

[3] = test system: full-thickness skin defect wound-induced model; assay: Full-thickness skin defect wound-induced model (tail); details: 120 μM, 25 μL applied once a day for 28 days; vs vehicle
Protocol: In order to confirm the tissue regeneration efficacy of the novel peptides, an experiment was conducted using a wound-induced model induced by a full-thickness skin defect of mouse's tail. For a full-thickness skin defect wound-induced model, 9-week-old specific pathogen free (SPF) male C57BL/6J mice were anesthetized, and then in order to indicate full-thickness wounding, a full-thickness wound with a size of 10 mm×3 mm was made on the dorsal part of the mouse's tail, about 1.0 cm away from the base of the mouse's tail, using an aseptic dissection mass No. 10. Bleeding was stopped by compressing the wound, and the wound was covered with a film spray dressing (Cavilon, 3M). For 28 days from the day of wound induction, Amuc_1409 or PEP001 to PEP013 were each dissolved in vehicle (50% ethanol, 20% propylene glycol, 30% water) at a concentration of 120 μM and then applied to the wound site by 25 μL per animal once a day. For the control group, the same volume of vehicle (50% ethanol, 20% propylene glycol, 30% water) was applied to the wound site. The test was terminated on day 29 after wound induction. In order to observe the wound healing effect, the wound sites of animals in each test group were individually photographed using a digital camera at a constant height from the wound for 28 days at 7-day intervals from the day of wound induction, and the wound area was measured using the Image J Soft program.

Substance | Tnfα gene expression in liver tissue [1] | immobility time in forced swim test [2] | immobility time in tail suspension test [2] | wound area [3] | wound size (visually confirmed) [3] | Il-1p gene expression in liver tissue [1] | Ifnγ gene expression in liver tissue [1] | 11-10, which is an anti-inflammatory index (liver gene expression) [1] | Ifnγ mRNA expression in brain tissue (hippocampus) [2] | Il-10 mRNA expression in brain tissue (hippocampus) [2] | time spent in the open arm, elevated plus-maze test [2] | Il-6 gene expression in liver tissue [1]
AGAY (PEP006) | tended to decrease | tended to decrease | decreased | significantly decreased | rapidly decreased | – | – | – | – | – | – | –
AGS [PEP012] | – | tended to decrease | decreased | – | – | tended to decrease | – | – | – | – | – | –
AIS [PEP013] | – | tended to decrease | decreased | significantly decreased | rapidly decreased | significantly decreased | tended to decrease | – | – | – | – | –
AQS [PEP011] | – | tended to decrease | decreased | significantly decreased | rapidly decreased | tended to decrease | tended to decrease | – | – | – | – | –
AVS (AVSSIKGAY) [PEP004] | significantly decreased | significantly decreased | significantly decreased | significantly decreased | rapidly decreased | decreased close to a significant level | – | significantly increased | significantly decreased | significantly increased | increased | –
AVSSI (PEP002) | – | significantly decreased | significantly decreased | significantly decreased | rapidly decreased | significantly decreased | – | tended to increase close to a significant level | significantly decreased | significantly increased | increased | –
AVSSIKGAY (PEP001) | – | significantly decreased | significantly decreased | significantly decreased | rapidly decreased | decreased close to a significant level | – | significantly increased | significantly decreased | significantly increased | increased | –
GAY [PEP005] | significantly decreased | significantly decreased | significantly decreased | significantly decreased | rapidly decreased | significantly decreased | – | significantly increased | significantly decreased | significantly increased | increased | –
IGAY (PEP008) | significantly decreased | tended to decrease | decreased | significantly decreased | rapidly decreased | significantly decreased | decreased close to a significant level | – | – | – | – | tended to decrease
KGAY (PEP003) | significantly decreased | significantly decreased | significantly decreased | significantly decreased | rapidly decreased | significantly decreased | – | significantly increased | significantly decreased | significantly increased | increased | –
RGAY (PEP007) | significantly decreased | tended to decrease | decreased | significantly decreased | rapidly decreased | – | tended to decrease | – | – | – | – | tended to decrease
SGAY (PEP009) | tended to decrease | tended to decrease | decreased | significantly decreased | rapidly decreased | significantly decreased | tended to decrease | – | – | – | – | tended to decrease
VGAY (PEP010) | tended to decrease | tended to decrease | decreased | significantly decreased | rapidly decreased | significantly decreased | tended to decrease | – | – | – | – | tended to decrease
